Experiments:
Format in all cases: functional
SNB-19 = test: Growth inhibition of human SNB19 cells assessed as cell growth at 10 uM after 48 hrs by sulforhodamine B assay relative to control; details: SNB-19, 48 h, read-out: Activity
SK-OV-3 = test: Growth inhibition of human SKOV3 cells assessed as cell growth at 10 uM after 48 hrs by sulforhodamine B assay relative to control; details: SK-OV-3, 48 h, read-out: Activity
NCI-H226 = test: Growth inhibition of human NCI-H226 cells assessed as cell growth at 10 uM after 48 hrs by sulforhodamine B assay relative to control; details: NCI-H226, 48 h, read-out: Activity
RPMI-8226 = test: Growth inhibition of human RPMI8226 cells after 48 hrs by sulforhodamine B assay; details: RPMI-8226, 48 h; for CC50: read-out: LC50 (the source's name)
SF-295 = test: Growth inhibition of human SF295 cells assessed as cell growth at 10 uM after 48 hrs by sulforhodamine B assay relative to control; details: SF-295, 48 h, read-out: Activity
NCI-H23 [1] = test: Growth inhibition of human NCI-H23 cells after 48 hrs by sulforhodamine B assay; details: NCI-H23, 48 h
HCT-15 [2] = test: Growth inhibition of human HCT15 cells after 48 hrs by sulforhodamine B assay; details: HCT-15, 48 h
HCT-15 [3] = test: Growth inhibition of human HCT15 cells assessed as cell growth at 10 uM after 48 hrs by sulforhodamine B assay relative to control; details: HCT-15, 48 h, read-out: Activity
UACC-257 = test: Growth inhibition of human UACC257 cells after 48 hrs by sulforhodamine B assay; details: UACC-257, 48 h; for CC50: read-out: LC50 (the source's name)
A498 = test: Growth inhibition of human A498 cells assessed as cell growth at 10 uM after 48 hrs by sulforhodamine B assay relative to control; details: A498, 48 h, read-out: Activity
SF-539 = test: Growth inhibition of human SF539 cells after 48 hrs by sulforhodamine B assay; details: SF-539, 48 h; for CC50: read-out: LC50 (the source's name)
KM12 = test: Growth inhibition of human KM12 cells assessed as cell growth at 10 uM after 48 hrs by sulforhodamine B assay relative to control; details: KM12, 48 h, read-out: Activity
TK-10 = test: Growth inhibition of human TK10 cells assessed as cell growth at 10 uM after 48 hrs by sulforhodamine B assay relative to control; details: TK-10, 48 h, read-out: Activity
HL-60(TB) = test: Growth inhibition of human HL-60(TB) cells assessed as cell growth at 10 uM after 48 hrs by sulforhodamine B assay relative to control; details: HL-60, 48 h, read-out: Activity
OVCAR-8 = test: Growth inhibition of human OVCAR8 cells assessed as cell growth at 10 uM after 48 hrs by sulforhodamine B assay relative to control; details: OVCAR-8, 48 h, read-out: Activity
OVCAR-5 = test: Growth inhibition of human OVCAR5 cells after 48 hrs by sulforhodamine B assay; details: OVCAR-5, 48 h; for CC50: read-out: LC50 (the source's name)
HOP-62 = test: Growth inhibition of human HOP62 cells assessed as cell growth at 10 uM after 48 hrs by sulforhodamine B assay relative to control; details: HOP-62, 48 h, read-out: Activity
PC-3 = test: Growth inhibition of human PC3 cells after 48 hrs by sulforhodamine B assay; details: PC-3, 48 h
CAKI-1 = test: Growth inhibition of human CAKI-1 cells after 48 hrs by sulforhodamine B assay; details: CAKI-1, 48 h
T47D = test: Growth inhibition of human T47D cells after 48 hrs by sulforhodamine B assay
[4] = Growth inhibition of human HCC2998 cells assessed as cell growth at 10 uM after 48 hrs by sulforhodamine B assay relative to control; details: HCC 2998, 48 h, read-out: Activity
NCI-H322M = test: Growth inhibition of human NCI-H322M cells after 48 hrs by sulforhodamine B assay; details: for CC50: read-out: LC50 (the source's name)
[5] = Growth inhibition of human NCI-ADR-RES cells after 48 hrs by sulforhodamine B assay; details: for CC50: read-out: LC50 (the source's name)
OVCAR-4 = test: Growth inhibition of human OVCAR4 cells after 48 hrs by sulforhodamine B assay; details: OVCAR-4, 48 h
NCI-H23 [6] = test: Growth inhibition of human NCI-H23 cells assessed as cell growth at 10 uM after 48 hrs by sulforhodamine B assay relative to control; details: NCI-H23, 48 h, read-out: Activity
SK-MEL-5 [7] = test: Growth inhibition of human SK-MEL-5 cells assessed as cell growth at 10 uM after 48 hrs by sulforhodamine B assay relative to control; details: SK-MEL-5, 48 h, read-out: Activity
SK-MEL-5 [8] = test: Growth inhibition of human SK-MEL-5 cells after 48 hrs by sulforhodamine B assay; details: SK-MEL-5, 48 h
[9] = Growth inhibition of human NCI-ADR-RES cells assessed as cell growth at 10 uM after 48 hrs by sulforhodamine B assay relative to control; details: read-out: Activity
K562 = test: Growth inhibition of human K562 cells after 48 hrs by sulforhodamine B assay; details: K562, 48 h
A549 = test: Growth inhibition of human A549/ATCC cells assessed as cell growth at 10 uM after 48 hrs by sulforhodamine B assay relative to control; details: A549, 48 h, read-out: Activity
RXF 393 = test: Growth inhibition of human RXF393 cells assessed as cell growth at 10 uM after 48 hrs by sulforhodamine B assay relative to control; details: RXF 393, 48 h, read-out: Activity
BT-549 = test: Growth inhibition of human BT549 cells after 48 hrs by sulforhodamine B assay; details: BT-549, 48 h; for CC50: read-out: LC50 (the source's name)
MDA-MB-468 = test: Growth inhibition of human MDA-MB-468 cells assessed as cell growth at 10 uM after 48 hrs by sulforhodamine B assay relative to control; details: MDA-MB-468, 48 h, read-out: Activity

Work on `CCCCN(CCCC)CCCNc1nc2c(c(=N)n1-c1ccccc1)c(=S)n(-c1ccccc1)c(=S)n2-c1ccccc1` yielded a growth at 10 µM (SNB-19) of -87.4%, a growth at 10 µM (SK-OV-3) of -86.5% and a growth at 10 µM (NCI-H226) of -82.5%. The GI50 (RPMI-8226) was 0.2 µM, the TGI (RPMI-8226) was 0.3 µM and the CC50 (RPMI-8226) was 0.7 µM. It also gave a growth at 10 µM (SF-295) of -100%, a GI50 (NCI-H23 [1]) of 1.6 µM and an LC50 (concentration killing 50% of cells) (NCI-H23 [1]) of 8.4 µM. It also gave a TGI (NCI-H23 [1]) of 3.4 µM, a GI50 (HCT-15 [2]) of 0.3 µM and an LC50 (HCT-15 [2]) of 3.4 µM. The TGI (HCT-15 [2]) was 1.1 µM, the growth at 10 µM (HCT-15 [3]) was -73.3% and the GI50 (UACC-257) was 0.2 µM. The TGI (UACC-257) was 0.4 µM, the CC50 (UACC-257) was 0.9 µM and the growth at 10 µM (A498) was -100%. It also gave a GI50 (SF-539) of 1.2 µM, a TGI (SF-539) of 2.7 µM and a CC50 (SF-539) of 5.7 µM. The growth at 10 µM (KM12) was -100%, the growth at 10 µM (TK-10) was -89.6% and the growth at 10 µM (HL-60(TB)) was -74.8%. For the same compound, the growth at 10 µM (OVCAR-8) was -36.1%, the GI50 (OVCAR-5) was 1.4 µM and the TGI (OVCAR-5) was 2.8 µM. It also gave a CC50 (OVCAR-5) of 5.5 µM, a growth at 10 µM (HOP-62) of -99.5% and a GI50 (PC-3) of 0.6 µM. The LC50 (50% lethal concentration) (PC-3) was 4.6 µM, the TGI (PC-3) was 1.9 µM and the GI50 (CAKI-1) was 0.1 µM. The LC50 (CAKI-1) was 3.1 µM, the TGI (CAKI-1) was 0.8 µM and the GI50 (T47D) was 0.2 µM. The LC50 (T47D) was 8.3 µM, the TGI (T47D) was 0.5 µM and the growth at 10 µM [4] was -91.5%. For the same compound, the GI50 (NCI-H322M) was 1.4 µM, the TGI (NCI-H322M) was 3.2 µM and the CC50 (NCI-H322M) was 7.4 µM. For the same compound, the GI50 [5] was 1.6 µM, the TGI [5] was 3.3 µM and the CC50 [5] was 8.1 µM. For the same compound, the GI50 (OVCAR-4) was 0.6 µM, the TGI (OVCAR-4) was 1.9 µM and the CC50 (OVCAR-4; read-out: LC50 (the source's name)) was 4.4 µM. For the same compound, the growth at 10 µM (NCI-H23 [6]) was -56.3%, the growth at 10 µM (SK-MEL-5 [7]) was -100% and the GI50 (SK-MEL-5 [8]) was 0.9 µM. It also gave an LC50 (SK-MEL-5 [8]) of 4.6 µM, a TGI (SK-MEL-5 [8]) of 2.1 µM and a growth at 10 µM [9] of -71.1%. It also gave a GI50 (K562) of 0.2 µM, a growth at 10 µM (A549) of -38.4% and a growth at 10 µM (RXF 393) of -67.7%. The GI50 (BT-549) was 1.5 µM, the TGI (BT-549) was 3.2 µM and the CC50 (BT-549) was 6.7 µM. The growth at 10 µM (MDA-MB-468) was -89.9%.

Compound `CN(C)CCNc1nc2c(c(=N)n1-c1ccccc1)c(=S)n(-c1ccccc1)c(=S)n2-c1ccccc1` has a growth at 10 µM (SNB-19) of 26.1%, a growth at 10 µM (SK-OV-3) of 76.3% and a growth at 10 µM (NCI-H226) of 82.3%. For the same compound, the GI50 (RPMI-8226) was 0.4 µM, the TGI (RPMI-8226) was 2.2 µM and the CC50 (RPMI-8226) was 7.3 µM. For the same compound, the growth at 10 µM (SF-295) was -61.5%, the GI50 (NCI-H23 [1]) was 16.8 µM and the TGI (NCI-H23 [1]) was 42.1 µM. It also gave a GI50 (HCT-15 [2]) of 1.4 µM, an LC50 (HCT-15 [2]) of 17.7 µM and a TGI (HCT-15 [2]) of 4.5 µM. For the same compound, the growth at 10 µM (HCT-15 [3]) was 18.8%, the GI50 (UACC-257) was 1.7 µM and the TGI (UACC-257) was 3.6 µM. The CC50 (UACC-257) was 7.5 µM, the growth at 10 µM (A498) was 40.3% and the GI50 (SF-539) was 1.8 µM. It also gave a TGI (SF-539) of 3.5 µM, a CC50 (SF-539) of 7 µM and a growth at 10 µM (KM12) of 0.2%. It also gave a growth at 10 µM (TK-10) of 47.7%, a growth at 10 µM (HL-60(TB)) of 36.6% and a growth at 10 µM (OVCAR-8) of 33.6%. It also gave a GI50 (OVCAR-5) of 12.1 µM, a TGI (OVCAR-5) of 29.5 µM and a CC50 (OVCAR-5) of 72.1 µM. The growth at 10 µM (HOP-62) was 6.19%, the GI50 (PC-3) was 4 µM and the LC50 (50% lethal concentration) (PC-3) was 51.9 µM. It also gave a TGI (PC-3) of 17.9 µM, a GI50 (CAKI-1) of 3.6 µM and an LC50 (CAKI-1) of 72 µM. For the same compound, the TGI (CAKI-1) was 17.6 µM, the GI50 (T47D) was 2.1 µM and the LC50 (T47D) was 30.5 µM. It also gave a TGI (T47D) of 5.4 µM, a growth at 10 µM [4] of -39.6% and a GI50 (NCI-H322M) of 6.2 µM. It also gave a TGI (NCI-H322M) of 20.7 µM, a CC50 (NCI-H322M) of 53.8 µM and a GI50 [5] of 10.5 µM. For the same compound, the TGI [5] was 31 µM, the CC50 [5] was 91 µM and the GI50 (OVCAR-4) was 3.1 µM. For the same compound, the TGI (OVCAR-4) was 10.8 µM, the growth at 10 µM (NCI-H23 [6]) was 67.6% and the growth at 10 µM (SK-MEL-5 [7]) was -98.8%. It also gave a GI50 (SK-MEL-5 [8]) of 1.6 µM, an LC50 (SK-MEL-5 [8]) of 6.1 µM and a TGI (SK-MEL-5 [8]) of 3.1 µM. The growth at 10 µM [9] was 58.8%, the GI50 (K562) was 0.4 µM and the LC50 (concentration killing 50% of cells) (K562) was 6.8 µM. The TGI (K562) was 2.2 µM, the growth at 10 µM (A549) was 35.4% and the growth at 10 µM (RXF 393) was -39.1%. It also gave a GI50 (BT-549) of 5.3 µM, a TGI (BT-549) of 21.3 µM and a CC50 (BT-549) of 62.1 µM. It also gave a growth at 10 µM (MDA-MB-468) of -34.6%.

From ChEMBL document CHEMBL2440027, “Further SAR studies on bicyclic basic merbarone analogues as potent antiproliferative agents” (Bioorg Med Chem, 2013)
